We go through eleven compounds from patent publication US20240209423A1, “METHODS AND COMPOSITIONS FOR REDUCING AUTOFLUORESCENCE” (Advanced Cell Diagnostics, Inc., priority 2021, published 2024).

≈ marks a conversion by molar mass, not a printed value.

For data set [1], the system named is tissue autofluorescence in FFPE mouse multi-tissue arrays. Kind of data set: Quinone compounds tested for tissue autofluorescence quenching, FFPE mouse multi-tissue arrays. The note with it: incubated for 30 min; compared with 4×SSC untreated control slide. Here is the method: Multiple quinone compounds were tested for tissue autofluorescence quenching effects on FFPE mouse multi-tissue arrays. After bake, deparaffinization, and pretreatment to permeabilize the tissue, 4×SSC or quinone derivative was applied to the tissue and incubated for 30 min. After washing DAPI was applied to stain the nucleus. Slides were then mounted with prolong gold and scanned using the same microscopic settings. A reduction in autofluorescence was determined by comparing the fluorescence on the quinone derivative treated slide with a 4×SSC untreated control slide.

For data set [2], the system named is autofluorescence in mouse FFPE kidney tissue. The data set is described as follows: RNAscope HiPlex assay with p-benzoquinone autofluorescence quenching, mouse FFPE kidney tissue. Particulars: 100 mM in 4× SSC, 30 minutes at room temperature, vs 4×SSC control. Here is the method: (§1) RNAscope® HiPlex assays were conducted to detect four positive control genes in mouse FFPE kidney tissue. ZZ probes for 12 different targets were hybridized together to a mouse multi-tissue array prepared as formalin-fixed paraffin embedded sections, and the hybridization signals were amplified together by successive rounds of hybridization with the preamplifier and amplifier sequences. Autofluorescence quenching was performed by application of p-benzoquinone (100 mM in 4× Saline-Sodium Citrate (SSC)) onto the slides for 30 minutes at room temperature, followed by detection of four (Ppib, Ubc, Polr2a and Hprt1) of the 12 target genes using fluorescent label probes corresponding to the signal amplification systems assigned to these four target probes and the fluorophores Alexa 488, DyLight 550, DyLight 650 and Alexa 750 respectively (bottom panels). On a separate slide, 4×SSC buffer alone was used as the untreated control. Nuclei were stained with DAPI.

For data set [3], the system named is FFPE mouse multi tissue array. The data set is described as follows: Quinone treatment condition optimization, RNAscope HiPlex, FFPE mouse multi tissue array.
Another data set has as its system mouse FFPE liver tissue. Kind of data set: Dye compatibility with p-benzoquinone treatment, RNAscope, mouse FFPE liver tissue. The note with it: p-benzoquinone applied after Amp 3. The source says: To evaluate the compatibility of certain dyes, targets were detected in mouse FFPE liver tissue, using the p-benzoquinone treatment step. […] Experimentally, these targets were detected using RNAscope® double Z probes and signals were amplified using an RNAscope® amplification system (Amp 1, 2, 3), with p-benzoquinone applied after Amp 3.

Data set [4] relates to autofluorescence in FFPE Human Brain Tissues. The data set is described as follows: Quenching of endogenous and lipofuscin autofluorescence, unstained FFPE human brain tissues. Particulars: 100 mM in 4×SSC. The protocol:
The present methods are effective at partially reducing autofluorescence caused by lipofuscin pigment granules that are most commonly found in brain tissues. FFPE Human Brain Tissues were treated with or without pBQ and imaged without staining to reveal tissue endogenous autofluorescence.

A short description of data set [5]: Maximum solubility in 4×SSC. In kind it is physicochemical. The note with it: 4×SSC buffer, aqueous buffer.
In the next data set the test system is hTMAc. Kind of data set: Antibody compatibility with pBQ treatment (immunofluorescence), hTMAc. The note with it: CD3, Leica mouse anti-CD3 1:200, Goat anti-rabbit AF488 1:500. The protocol: (§2) CD20 was detected in human head and neck FFPE tissue. After bake, deparaffmization, and pretreatment to permeabilize the tissue, 4×SSC (untreated control) or p-benzoquinone (pBQ) (40 mM in 4×SSC) was applied onto the tissue and incubated for 30 min. After washing, mouse anti-CD20 primary antibody (Leica Ready to Use) was applied for 1 hour at room temperature (RT). Signal was amplified by rabbit anti-mouse post primary antibody (Leica Ready to Use) and goat anti-rabbit […] secondary antibody (Leica Ready to Use) conjugated to HRP. Signal was detected using Opal 520 (Akoya Bio) diluted 1:500 in TSA buffer. The images were taken with the same exposure settings. The brightness of the pBQ treated slide was increased by two-fold to achieve optimal display.
(§3) Additional antibodies were tested for compatibility with p-benzoquinone treatment, using the same general experimental method as described above.

Data set [6] has as its system mouse fresh frozen tissue. Kind of data set: RNAscope HiPlex assay with p-benzoquinone treatment, mouse fresh frozen tissue. The note with it: 100 mM in 4×SSC. The protocol:
as §1
Yet another similar experiment was conducted using mouse fresh frozen tissue, with detection of four of the twelve targets (Polr2a, Ppib, Ubc, and Hprt1).

A further data set has as its system FFPE mouse brain. The data set is described as follows: Antibody compatibility with pBQ treatment (immunofluorescence), FFPE mouse brain. Particulars: NeuN, Chicken anti NeuN 1:500, Goat anti-chicken AF555 1:500. Here is the method:
as §2, §3

Data set [7] concerns autofluorescence in human FFPE lung cancer tissue. Kind of data set: RNAscope HiPlex assay with p-benzoquinone treatment, human FFPE lung cancer tissue. The note with it: 100 mM in 4×SSC, vs 4×SSC alone. Here is the method:
as §1

Data set [8] relates to human head and neck FFPE tissue. The data set is described as follows: CD20 immunofluorescence after p-benzoquinone treatment, human head and neck FFPE tissue. Particulars: 40 mM in 4×SSC, 30 min, CD20, Opal 520.
Protocol: CD20 was detected in human head and neck FFPE tissue. After bake, deparaffmization, and pretreatment to permeabilize the tissue, 4×SSC (untreated control) or p-benzoquinone (pBQ) (40 mM in 4×SSC) was applied onto the tissue and incubated for 30 min. After washing, mouse anti-CD20 primary antibody (Leica Ready to Use) was applied for 1 hour at room temperature (RT). Signal was amplified by rabbit anti-mouse post primary antibody (Leica Ready to Use) and goat anti-rabbit Alexa 488 secondary antibody (Leica Ready to Use) conjugated to HRP. Signal was detected using Opal 520 (Akoya Bio) diluted 1:500 in TSA buffer. The images were taken with the same exposure settings.
Data set [9] has as its system FFPE human tumor microarray. The data set is described as follows: Quinone treatment condition optimization, RNAscope HiPlex, FFPE human tumor microarray. Also noted: key to the marks not given beside the values. Particulars: 100 mM, 30 min, Polr2a, PPIB, UBC, Hprt1. The protocol:
Major factors tested for p-benzoquinone were chemical concentration, incubation time, and fluorescent dyes.

Data set [10] concerns autofluorescence in non-human primate fixed frozen liver tissue. The data set is described as follows: RNAscope HiPlex assay with p-benzoquinone treatment, non-human primate fixed frozen liver tissue. Particulars: 100 mM in 4×SSC, vs 4×SSC alone.

Take `CC1=CC(=O)C=C(C)C1=O` [2,6-Dimethylbenzoquinone]: in data set [1], the Autofluorescence quenching effect entry is recorded as “No”.
As to `O=C1C=CC(=O)C(Cl)=C1` [2-Chloro-1,4-benzoquinone], the Autofluorescence quenching effect entry in data set [1] is listed as “Yes”.
As to `COC1=CC(=O)C=CC1=O` [2-methoxybenzo-1,4-quinone], the Autofluorescence quenching effect entry in [1] is “Yes”.
Regarding `COC1=CC(=O)C(OC)=CC1=O` [2,5-Dimethoxy-(1,4)-benzoquinone], in [1], the Autofluorescence quenching effect result is “No”.
The term solubility denotes the concentration that dissolves in the medium under given conditions. Turning to `O=C1C=CC(=O)C=C1` [p-benzoquinone], the “effect on tissue autofluorescence” value was “effectively reduced autofluorescence” in data set [2], “reduced autofluorescence” in [7] and “reduced autofluorescence” in data set [10]. For the same compound, the Signal/noise ratio entry was “+++” in data set [3] (2 mM, overnight, Polr2a, PPIB, UBC, Hprt1); “−−+” in data set [3] (20 mM, 30 min); “+++” in [3] (100 mM, 30 min); “+++” in data set [3] (200 mM, 30 min); “+++” in data set [3] (Fluorescent dyes: Alexa dyes); “+++” in [3] (Fluorescent dyes: Dylight dyes). The Signal/noise ratio result in data set [9] is on record as “+++”. Besides, the “target detection with ATTO dye label probes after p-benzoquinone treatment” value with mouse FFPE liver tissue (ATTO 550 (UBC), ATTO 647N (POLR2A)) is “did not lead to successful detection”. In addition, the “target detection with Dylight label probes after p-benzoquinone treatment” value with mouse FFPE liver tissue (Dylight 550 (UBC), Dylight 650 (POLR2A)) is “successfully detected”. Also, the results for the “effect on lipofuscin autofluorescence (dot-like and clusters of fluorescence)” value in [4] and in data set [4] (listed as p-Benzoquinone) were “partially quenches lipofuscin autofluorescence” and “reduced but not completely eliminated”, respectively. Moreover, the “effect on fixation induced haze background” value in [4] (vs no pBQ control) was “greatly reduced”. For the same compound, the Autofluorescence quenching effect result in data set [1] was “Yes”. For the same compound, in [5], the concentration in solution (solubility) came to 100 mM (≈ 10.8 mg/mL). Further, the “IF Signal compared to control” value in the data set with hTMAc and with FFPE mouse brain was “Weaker” in each case. Also, the “compatibility with RNA in situ hybridization assay” value in data set [6] is reported as “compatible”. Moreover, the “compatibility of autofluorescence quenching treatment with immunofluorescence” value in data set [8] is given as “compatible with immunofluorescence assays”.
As for `COC1=CC(=O)C=C(OC)C1=O` [2,6-Dimethoxy-1,4-benzoquinone], the Autofluorescence quenching effect result in data set [1] is on record as “No”.
As to `Oc1ccc(O)cc1` [Hydroquinone], the Signal/noise ratio result in data set [3] (20 mM, 4 d, with light exposure) is listed as “−−+”; in data set [3] (20 mM, 6 d, with light exposure), “−−+”; in [3] (200 mM, 2 d, with light exposure) it was “−−+”; in [3] (200 mM, 4 d, with light exposure), “−++”; in data set [3] (200 mM, 5 d, with light exposure), “−++”; in [3] (200 mM, 6 d, with light exposure) it was “−++”. Moreover, the Signal/noise ratio entry is given as “−−+” in data set [3] (Buffer 2x SSC (20 mM, 4 d, with light exposure)); “−−+” in [3] (Buffer 4x SSC (20 mM, 4 d, with light exposure)); “−−+” in data set [3] (Buffer Decal (20 mM, 4 d, with light exposure)); “−−+” in [3] (Buffer RNAase later/inhibitor (20 mM, 4 d, with light exposure)); “−−+” in [3] (Light exposure Yes (200 mM, 2 d)); “−−+” in data set [3] (Workflow position After Amp1 (20 mM, 2 d, with light exposure)). Further, the Signal/noise ratio entry in data set [3] (Workflow position After Amp2 (20 mM, 2 d, with light exposure)) is listed as “−−+”; in data set [3] (Workflow position After Amp3 (20 mM, 2 d, with light exposure)), “−++”. For the same compound, in [1], the Autofluorescence quenching effect result is “Yes”.
As for `O=C1C=C(Cl)C(=O)C=C1Cl` [2,5-Dichloro-1,4-benzoquinone], in data set [1], the Autofluorescence quenching effect result is listed as “Yes”.
Same read-out and setting: the result for `O.O=C1C(O)=C(O)C(=O)C(O)=C1O` [Tetrahydroxy-1,4-quinone hydrate] reads “No”.
Take `O=C1C=C(Cl)C(=O)C(Cl)=C1` [2,6-Dichloro-1,4-benzoquinone]: in data set [1], the Autofluorescence quenching effect entry is listed as “Yes”.
Still for that read-out and setting: to `CC1=CC(=O)C=CC1=O` [Methyl-p-benzoquinone] belongs “No”.
